Experiments:
Test in all cases: Test C preemergence
Assay type in all cases: in vivo
[1] = tested on: Galium (catchweed bedstraw, Galium aparine); conditions: for Plant response rating, Galium: scale 0 to 100, 0 no effect, 100 complete control
Procedure, shortened: (§1)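 Herbicidal effect, applied preemergence to sown seeds or postemergence to 1- to 4-leaf plants, was scored visually 13 to 15 d after application, 0 to 100 versus controls.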

[2] = tested on: barnyardgrass (Echinochloa crus-galli); conditions: for Plant response rating, Barnyardgrass: scale 0 to 100, 0 no effect, 100 complete control
Procedure, shortened: as §1

[3] = tested on: blackgrass (Alopecurus myosuroides); conditions: for Plant response rating, Blackgrass: scale 0 to 100, 0 no effect, 100 complete control
Procedure, shortened: as §1

corn (Zea mays) = conditions: for Plant response rating, Corn: scale 0 to 100, 0 no effect, 100 complete control
Procedure, shortened: as §1

[4] = tested on: crabgrass, large (large crabgrass, Digitaria sanguinalis); conditions: for Plant response rating, Crabgrass, Large: scale 0 to 100, 0 no effect, 100 complete control
Procedure, shortened: as §1

[5] = tested on: foxtail, giant (giant foxtail, Setaria faberii); conditions: for Plant response rating, Foxtail, Giant: scale 0 to 100, 0 no effect, 100 complete control
Procedure, shortened: as §1

[6] = tested on: lambsquarters (Chenopodium album); conditions: for Plant response rating, Lambsquarters: scale 0 to 100, 0 no effect, 100 complete control
Procedure, shortened: as §1

[7] = tested on: morningglory (Ipomoea coccinea); conditions: for Plant response rating, Morningglory: scale 0 to 100, 0 no effect, 100 complete control
Procedure, shortened: as §1

[8] = tested on: nutsedge, yellow (yellow nutsedge, Cyperus esculentus); conditions: for Plant response rating, Nutsedge, Yellow: scale 0 to 100, 0 no effect, 100 complete control
Procedure, shortened: as §1

[9] = tested on: oilseed rape (Brassica napus); conditions: for Plant response rating, Oilseed Rape: scale 0 to 100, 0 no effect, 100 complete control
Procedure, shortened: as §1

[10] = tested on: pigweed (Amaranthus retroflexus); conditions: for Plant response rating, Pigweed: scale 0 to 100, 0 no effect, 100 complete control
Procedure, shortened: as §1

[11] = tested on: ragweed (common ragweed, Ambrosia elatior); conditions: for Plant response rating, Ragweed: scale 0 to 100, 0 no effect, 100 complete control
Procedure, shortened: as §1

[12] = tested on: ryegrass, Italian (Italian ryegrass, Lolium multiflorum); conditions: for Plant response rating, Ryegrass, Italian: scale 0 to 100, 0 no effect, 100 complete control
Procedure, shortened: as §1

soybean (Glycine max) = conditions: for Plant response rating, Soybean: scale 0 to 100, 0 no effect, 100 complete control
Procedure, shortened: as §1

[13] = tested on: velvetleaf (Abutilon theophrasti); conditions: for Plant response rating, Velvetleaf: scale 0 to 100, 0 no effect, 100 complete control
Procedure, shortened: as §1

[14] = tested on: waterhemp (common waterhemp, Amaranthus rudis); conditions: for Plant response rating, Waterhemp: scale 0 to 100, 0 no effect, 100 complete control
Procedure, shortened: as §1

[15] = tested on: wheat (winter wheat, Triticum aestivum); conditions: for Plant response rating, Wheat: scale 0 to 100, 0 no effect, 100 complete control
Procedure, shortened: as §1

[16] = 31 g ai/ha, 0 is no effect, 100 is complete control

What does the source list for `O=C1NCC(c2cccc(OC(F)(F)C(F)F)c2)C1C(=O)Nc1ccccc1F` (racemic) [Compound 695]?
Plant response rating (scale of 0 to 100), Galium [1, 16]: 50; Plant response rating, Galium ([1]; 62 g ai/ha): 80; Plant response rating, Galium ([1]; 125 g ai/ha): 85; Plant response rating, Galium ([1]; 250 g ai/ha): 90; Plant response rating (scale of 0 to 100), Barnyardgrass [2, 16]: 90; Plant response rating, Barnyardgrass ([2]; 62 g ai/ha): 90; Plant response rating, Barnyardgrass ([2]; 125 g ai/ha): 90; Plant response rating, Barnyardgrass ([2]; 250 g ai/ha): 90; Plant response rating (scale of 0 to 100), Blackgrass [3, 16]: 0; Plant response rating, Blackgrass ([3]; 62 g ai/ha): 20; Plant response rating, Blackgrass ([3]; 125 g ai/ha): 90; Plant response rating, Blackgrass ([3]; 250 g ai/ha): 90; Plant response rating (scale of 0 to 100), Corn (corn (Zea mays); [16]): 0; Plant response rating, Corn (corn (Zea mays); 62 g ai/ha): 25; Plant response rating, Corn (corn (Zea mays); 125 g ai/ha): 70; Plant response rating, Corn (corn (Zea mays); 250 g ai/ha): 80; Plant response rating (scale of 0 to 100), Crabgrass, Large [4, 16]: 90; Plant response rating, Crabgrass, Large ([4]; 62 g ai/ha): 90; Plant response rating, Crabgrass, Large ([4]; 125 g ai/ha): 95; Plant response rating, Crabgrass, Large ([4]; 250 g ai/ha): 95; Plant response rating (scale of 0 to 100), Foxtail, Giant [5, 16]: 80; Plant response rating, Foxtail, Giant ([5]; 62 g ai/ha): 85; Plant response rating, Foxtail, Giant ([5]; 125 g ai/ha): 90; Plant response rating, Foxtail, Giant ([5]; 250 g ai/ha): 90; Plant response rating (scale of 0 to 100), Lambsquarters [6, 16]: 25; Plant response rating, Lambsquarters ([6]; 62 g ai/ha): 40; Plant response rating, Lambsquarters ([6]; 125 g ai/ha): 65; Plant response rating, Lambsquarters ([6]; 250 g ai/ha): 80; Plant response rating (scale of 0 to 100), Morningglory [7, 16]: 0; Plant response rating, Morningglory ([7]; 62 g ai/ha): 0; Plant response rating, Morningglory ([7]; 125 g ai/ha): 5; Plant response rating, Morningglory ([7]; 250 g ai/ha): 10; Plant response rating (scale of 0 to 100), Nutsedge, Yellow [8, 16]: 0; Plant response rating, Nutsedge, Yellow ([8]; 62 g ai/ha): 0; Plant response rating, Nutsedge, Yellow ([8]; 125 g ai/ha): 0; Plant response rating, Nutsedge, Yellow ([8]; 250 g ai/ha): 0; Plant response rating (scale of 0 to 100), Oilseed Rape [9, 16]: 0; Plant response rating, Oilseed Rape ([9]; 62 g ai/ha): 40; Plant response rating, Oilseed Rape ([9]; 125 g ai/ha): 85; Plant response rating, Oilseed Rape ([9]; 250 g ai/ha): 80; Plant response rating (scale of 0 to 100), Pigweed [10, 16]: 50; Plant response rating, Pigweed ([10]; 62 g ai/ha): 60; Plant response rating, Pigweed ([10]; 125 g ai/ha): 65; Plant response rating, Pigweed ([10]; 250 g ai/ha): 70; Plant response rating (scale of 0 to 100), Ragweed [11, 16]: 35; Plant response rating, Ragweed ([11]; 62 g ai/ha): 70; Plant response rating, Ragweed ([11]; 125 g ai/ha): 75; Plant response rating, Ragweed ([11]; 250 g ai/ha): 80; Plant response rating (scale of 0 to 100), Ryegrass, Italian [12, 16]: 0; Plant response rating, Ryegrass, Italian ([12]; 62 g ai/ha): 60; Plant response rating, Ryegrass, Italian ([12]; 125 g ai/ha): 30; Plant response rating, Ryegrass, Italian ([12]; 250 g ai/ha): 30; Plant response rating (scale of 0 to 100), Soybean (soybean (Glycine max); [16]): 0; Plant response rating, Soybean (soybean (Glycine max); 62 g ai/ha): 0; Plant response rating, Soybean (soybean (Glycine max); 125 g ai/ha): 0; Plant response rating, Soybean (soybean (Glycine max); 250 g ai/ha): 0; Plant response rating (scale of 0 to 100), Velvetleaf [13, 16]: 0; Plant response rating, Velvetleaf ([13]; 62 g ai/ha): 10; Plant response rating, Velvetleaf ([13]; 125 g ai/ha): 30; Plant response rating, Velvetleaf ([13]; 250 g ai/ha): 55; Plant response rating (scale of 0 to 100), Waterhemp [14, 16]: 55; Plant response rating, Waterhemp ([14]; 62 g ai/ha): 75; Plant response rating, Waterhemp ([14]; 125 g ai/ha): 70; Plant response rating, Waterhemp ([14]; 250 g ai/ha): 85; Plant response rating (scale of 0 to 100), Wheat [15, 16]: 40; Plant response rating, Wheat ([15]; 62 g ai/ha): 5; Plant response rating, Wheat ([15]; 125 g ai/ha): 35; Plant response rating, Wheat ([15]; 250 g ai/ha): 60
